{
  "source": "patent US20220062205A1",
  "about": "“TREATMENT OF GASTROINTESTINAL DISORDERS AND SYMPTOMS THEREOF” (Indiana University Research and Technology Corporation, priority 2018, published 2022)",
  "format_in_all_cases": "in vivo, mouse",
  "key": {"Winnie mice [1]": {"test_system": "Winnie mice", "experiment": "Gastrointestinal transit of barium sulfate by X-ray imaging", "details": "25 mg/kg IP twice a day", "procedure": "The small molecular APE1/Ref-1 antagonist; APX3330, was administered via IP injections in Winnie mice at a dose of 25 mg/kg (30 G needle, max volume 200 μl) dissolved in Cremphore (2%) (Sigma-Aldrich): Ethanol (2%) in sterile water (96%). Mice received alternating IP injections twice a day with 12-hour intervals, over the course of two weeks during predominate intestinal inflammation. Winnie-sham treated mice received vehicle injections excluding APX3330 drugs. All mice were monitored, weighed and faecal pellets were collected over the course of treatment. GI transit was acquired via a non-invasive radiological method. Briefly, control C57BL/6, Winnie-sham treated and Winnie-APX3330 treated mice received an administration of barium sulfate (2.5 mg/mL; max volume of 200 μl; X-OPAQUE-HD) via oral gavage. Sequential x-rays were attained by HiRay Plus Porta610HF x-ray apparatus (JOC Corp, Kanagawa, Japan; 50 kV, 0.3 mAs, exposure time 60 ms) immediately post Barium sulfate administration (0 min), every 5 minutes for the first hour, 10 minutes for the second hour and then every 20 minutes through to 250 minutes. Fujifilm FCR Capsule XL11 and analysed on eFilm 4.2.0 software developed images. Parameters of GI transit were measured by time (mins) to determine contrast passing through whole GI tract (whole transit time), stomach to caecum (oro-cecal transit time; OCTT), leaving caecum to anus (colonic transit time; CTT) and caecum retention time."}, "Winnie mice [2]": {"test_system": "Winnie mice", "experiment": "Intestinal inflammation: faecal lipocalin (Lcn)-2 ELISA", "details": "day 14; mean±SEM, n=5", "procedure": "The small molecular APE1/Ref-1 antagonist; APX3330, was administered via IP injections in Winnie mice at a dose of 25 mg/kg (30 G needle, max volume 200 μl) dissolved in Cremphore (2%) (Sigma-Aldrich): Ethanol (2%) in sterile water (96%). Mice received alternating IP injections twice a day with 12-hour intervals, over the course of two weeks during predominate intestinal inflammation. Winnie-sham treated mice received vehicle injections excluding APX3330 drugs. All mice were monitored, weighed and faecal pellets were collected over the course of treatment. Faecal lipocalin (Lcn)-2 ELISA kit (Abcam) were used to detect efficacy of APX3330 on levels of colonic inflammation. Faecal samples collected on day 14 of treatments from control C57BL/6, Winnie-Sham treated and Winnie-APX3330 treated mice were reconstituted in PBS-0.1 TWEEN 20 (100 mg/mL) to form a homogenous faecal suspension. Homogenous suspension was centrifuged for 10 minutes at 12000 RPM at 4° C. Lcn-2 were determined in the clear supernatants. All samples were repeated in duplicates for statistical value. […] Microplate reader capable of measuring absorbance at 450 nm, with the correction wavelength set at 540 nm was used to detect Lcn-2 protein (pg/mL) in faecal pellet supernatant."}, "Winnie mice [3]": {"test_system": "Winnie mice", "experiment": "Superoxide production in the myenteric plexus (MitoSOX Red)", "details": "distal colon myenteric plexus; mean±SEM, n=4", "procedure": "The small molecular APE1/Ref-1 antagonist; APX3330, was administered via IP injections in Winnie mice at a dose of 25 mg/kg (30 G needle, max volume 200 μl) dissolved in Cremphore (2%) (Sigma-Aldrich): Ethanol (2%) in sterile water (96%). Mice received alternating IP injections twice a day with 12-hour intervals, over the course of two weeks during predominate intestinal inflammation. Winnie-sham treated mice received vehicle injections excluding APX3330 drugs. All mice were monitored, weighed and faecal pellets were collected over the course of treatment. MITOSOX™ Red M36008 (Invitrogen, Australia), acquired mitochondrial-derived production of superoxide in the myenteric ganglia. Briefly, distal colon preparations from control C57BL/6, Winnie-sham treated and Winnie-APX3330 treated mice freshly excised to expose the myenteric plexus. Samples were incubated at 37° C. for 40 minutes with 5 μM MITOSOX™ Red M36008. Tissues were washed with oxygenated physiological saline and fixed with Zamboni's fixative for 1-hour followed by (3×10 minute) 1×PBS washes. Prepared tissues were mounted on glass slides with DAKO fluorescent a mounting medium for imaging Images were captured as previously described above. Images were converted into binary and changes in fluorescence were measured in arbitrary units (arb. Units) relative to ganglion area using ImageJ software (National Institute of Health)."}, "Winnie mice [4]": {"test_system": "Winnie mice", "experiment": "Intestinal permeability: FABP1 ELISA in blood sera", "details": "day 14; mean±SEM, n=5", "procedure": "The small molecular APE1/Ref-1 antagonist; APX3330, was administered via IP injections in Winnie mice at a dose of 25 mg/kg (30 G needle, max volume 200 μl) dissolved in Cremphore (2%) (Sigma-Aldrich): Ethanol (2%) in sterile water (96%). Mice received alternating IP injections twice a day with 12-hour intervals, over the course of two weeks during predominate intestinal inflammation. Winnie-sham treated mice received vehicle injections excluding APX3330 drugs. All mice were monitored, weighed and faecal pellets were collected over the course of treatment. On day 14, mice were subjected to an overdose of lethobarb (1:16 dilution, 30 G, 100 μl/20 g) IP injections for blood collections prior to harvesting colon tissues. Puncture allowed for a minimal collection of 600 μl of blood via a 26 G needle. Blood was kept on ice for 2 hours, centrifuged at 12×G at 4° C. for 15 minutes were plasma was collected and stored at −20° C. for subsequent ELISA experiments. Quantikine ELISA (mouse/rat FABP1/L-FABP) (Abcam) measured sera levels for fatty acid binding protein (FABP)-1. All samples were repeated in duplicates for statistical value. […] Microplate reader capable of measuring absorbance at 450 nm, with the correction wavelength set at 540 nm was used to detect FABP-1 protein (ng/mL) in blood sera."}},
  "data": [
    {"smiles": "CCCCCCCCCC(=CC1=C(C)C(=O)C(OC)=C(OC)C1=O)C(=O)O", "note": "[APX3330]", "values": [
      {"measurement": "retention time in the cecum", "setting": "Winnie mice [1]; Winnie mice, mean±SEM", "value": "86.4 ± 17.8", "unit": "min"},
      {"measurement": "total transit time", "setting": "Winnie mice [1]; Winnie mice, mean±SEM", "value": "173.3 ± 24.6", "unit": "min"},
      {"measurement": "oro-caecal transit time (OCTT)", "setting": "Winnie mice [1]; between experimental groups, Winnie mice", "value": "No changes"},
      {"measurement": "colonic transit time (CTT)", "setting": "Winnie mice [1]; compared to Winnie-sham treated mice", "value": "improved"},
      {"measurement": "Lcn-2 faecal level", "setting": "Winnie mice [2]", "value": "36 ± 2.0", "unit": "pg/mL"},
      {"measurement": "MitoSOX fluorescence (superoxide production) relative to ganglion area", "setting": "Winnie mice [3]", "value": "19.2±7.5", "unit": "%"},
      {"measurement": "FABP1 in blood sera", "setting": "Winnie mice [4]", "value": "0.6 ± 0.2", "unit": "ng/mL"}
    ]}
  ]
}
